Data taken from US20080145313A1, “Compositions and Methods for the Treatment and Prevention of Neoplastic Disorders” (Genesis Research & Development Corporation Limited, priority 2006, published 2008).

Columns and labels:
A549 cells = test: Growth inhibition of siRNA-transfected A549 cells, SYBR Green I DNA content; type: cell-based, human; settings: 10 nM siRNA, DNA content 96 hours after transfection; for Growth Inhibition in A549 cells by 10 nM siRNA: transporter gene targets
Summary of the method: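 Growth read-out: cellular DNA quantified with SYBR Green I (485/535 nm) 96 h after transfection, cells frozen, thawed and lysed in PBS/1% Triton X-100, pH 7. Cells (A549, 5×10^3 cells/cm^2) received 10 nM siRNA by RNAiMAX; non-specific siRNA served as control; triplicate wells averaged.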

[1] = system: target transcript mRNA in A549 cells; test: Level of mRNA of target transcript in A549 cells by quantitative RT-PCR (Tables 12 and 13); type: cell-based, human; settings: 24 h post-transfection; for mRNA knockdown of transporter gene target transcript, 0.1 nM: 0.1 nM siRNA; for mRNA knockdown of transporter gene target transcript, 1 nM: 1 nM siRNA
Summary of the method: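 Target mRNA was measured by SYBR Green quantitative RT-PCR using random-primed cDNA, normalised to HPRT and Lamin. Samples came from A549 cells 24 h post-transfection with 0.1, 1.0 or 10 nM siRNA.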

Substance | Growth Inhibition in A549 cells by 10 nM siRNA (A549 cells) | mRNA knockdown of transporter gene target transcript, 0.1 nM [1] | mRNA knockdown of transporter gene target transcript, 1 nM [1] | Growth Inhibition in A549 cells (A549 cells)
SEQ ID NO: 4889: siRNA targeting SLC1A5 (ASCT2) (chain 1 TTGAAGAAGCGGATAAGCAGCTCCC; chain 2 UUGAAGAAGCGGAUAAGCAGCUCCC; Antisense strand given in DNA and RNA notation, chemistry not given here; one strand in two spellings) | − (no growth inhibition) | ++ (70-90% mRNA knockdown) | ++ (70-90% mRNA knockdown) | –
SEQ ID NO: 4890: siRNA targeting SLC1A5 (ASCT2) (chain 1 TTTACGAAGTCCAAGGACTGCTGGC; chain 2 UUUACGAAGUCCAAGGACUGCUGGC; Antisense strand given in DNA and RNA notation, chemistry not given here; one strand in two spellings) | − (no growth inhibition) | ++ (70-90% mRNA knockdown) | ++ (70-90% mRNA knockdown) | –
SEQ ID NO: 4891: siRNA targeting SLC1A5 (ASCT2) (chain 1 TCTACATTGAGGACGGTACAGGACC; chain 2 UCUACAUUGAGGACGGUACAGGACC; Antisense strand given in DNA and RNA notation, chemistry not given here; one strand in two spellings) | − (no growth inhibition) | ++ (70-90% mRNA knockdown) | ++ (70-90% mRNA knockdown) | –
SEQ ID NO: 4892: siRNA targeting SLC2A1 (GLUT1) (chain 1 TGTCTTATCACTTTGGCTGGCTCCC; chain 2 UGUCUUAUCACUUUGGCUGGCUCCC; Antisense strand given in DNA and RNA notation, chemistry not given here; one strand in two spellings) | + (inhibits by at least 50%) | − (<50% mRNA knockdown) | − (<50% mRNA knockdown) | –
SEQ ID NO: 4893: siRNA targeting SLC2A1 (GLUT1) (chain 1 TTCATCATCAGCATTGAATTCCGCC; chain 2 UUCAUCAUCAGCAUUGAAUUCCGCC; Antisense strand given in DNA and RNA notation, chemistry not given here; one strand in two spellings) | ++ (inhibits by at least 75%) | − (<50% mRNA knockdown) | − (<50% mRNA knockdown) | –
SEQ ID NO: 4894: siRNA targeting SLC2A1 (GLUT1) (chain 1 TGACACTTCACCCACATACATGGGC; chain 2 UGACACUUCACCCACAUACAUGGGC; Antisense strand given in DNA and RNA notation, chemistry not given here; one strand in two spellings) | − (no growth inhibition) | − (<50% mRNA knockdown) | ++ (70-90% mRNA knockdown) | –
SEQ ID NO: 4895: siRNA targeting SLC2A5 (GLUT5) (chain 1 ATGTATGGCATCCAGGACACTGTGT; chain 2 AUGUAUGGCAUCCAGGACACUGUGU; Antisense strand given in DNA and RNA notation, chemistry not given here; one strand in two spellings) | − (no growth inhibition) | ++ (70-90% mRNA knockdown) | ++ (70-90% mRNA knockdown) | –
SEQ ID NO: 4896: siRNA targeting SLC2A5 (GLUT5) (chain 1 AAGTCTTCCATGAATTCACCGGTCC; chain 2 AAGUCUUCCAUGAAUUCACCGGUCC; Antisense strand given in DNA and RNA notation, chemistry not given here; one strand in two spellings) | − (no growth inhibition) | − (<50% mRNA knockdown) | − (<50% mRNA knockdown) | –
SEQ ID NO: 4897: siRNA targeting SLC2A5 (GLUT5) (chain 1 TTACAGACCACAGCAACGTCAAGGG; chain 2 UUACAGACCACAGCAACGUCAAGGG; Antisense strand given in DNA and RNA notation, chemistry not given here; one strand in two spellings) | ++ (inhibits by at least 75%) | +++ (>90% mRNA knockdown) | +++ (>90% mRNA knockdown) | –
SEQ ID NO: 4898: siRNA targeting SLC2A12 (GLUT12) (chain 1 TATTGTTGTTGGTTGACAGGTTTCC; chain 2 UAUUGUUGUUGGUUGACAGGUUUCC; Antisense strand given in DNA and RNA notation, chemistry not given here; one strand in two spellings) | − (no growth inhibition) | +++ (>90% mRNA knockdown) | +++ (>90% mRNA knockdown) | –
SEQ ID NO: 4899: siRNA targeting SLC2A12 (GLUT12) (chain 1 TTAGCAAGGATGCTGAGGTCGTCTC; chain 2 UUAGCAAGGAUGCUGAGGUCGUCUC; Antisense strand given in DNA and RNA notation, chemistry not given here; one strand in two spellings) | − (no growth inhibition) | ++ (70-90% mRNA knockdown) | ++ (70-90% mRNA knockdown) | –
SEQ ID NO: 4900: siRNA targeting SLC2A12 (GLUT12) (chain 1 TTGAAATATAGGCAGAAAGAATGCC; chain 2 UUGAAAUAUAGGCAGAAAGAAUGCC; Antisense strand given in DNA and RNA notation, chemistry not given here; one strand in two spellings) | − (no growth inhibition) | ++ (70-90% mRNA knockdown) | ++ (70-90% mRNA knockdown) | –
SEQ ID NO: 4901: siRNA targeting SLC7A5 (LAT1) (chain 1 AGCGTCATCACACACGTGAACACGA; chain 2 AGCGUCAUCACACACGUGAACACGA; Antisense strand given in DNA and RNA notation, chemistry not given here; one strand in two spellings) | − (no growth inhibition) | ++ (70-90% mRNA knockdown) | ++ (70-90% mRNA knockdown) | –
SEQ ID NO: 4902: siRNA targeting SLC7A5 (LAT1) (chain 1 AAAGAGGCCGCTGTATAATGCCAGC; chain 2 AAAGAGGCCGCUGUAUAAUGCCAGC; Antisense strand given in DNA and RNA notation, chemistry not given here; one strand in two spellings) | + (inhibits by at least 50%) | ++ (70-90% mRNA knockdown) | ++ (70-90% mRNA knockdown) | –
SEQ ID NO: 4998: siRNA targeting UMPS (chain 1 GAGTTGTGAAAGGCCTGCAAGAAGT; chain 2 GAGUUGUGAAAGGCCUGCAAGAAGU; chemistry not given here; one strand in two spellings) | – | – | – | − (no growth inhibition with any siRNA)
SEQ ID NO: 4999: siRNA targeting UMPS (chain 1 TGGAAACTGTTGAGGTTCTTCAGAA; chain 2 UGGAAACUGUUGAGGUUCUUCAGAA; chemistry not given here; one strand in two spellings) | – | – | – | + (inhibits by at least 50%)
SEQ ID NO: 5000: siRNA targeting UMPS (chain 1 GCTGTTGCAGCTAGCAGATGCTTTA; chain 2 GCUGUUGCAGCUAGCAGAUGCUUUA; chemistry not given here; one strand in two spellings) | – | – | – | − (no growth inhibition with any siRNA)
SEQ ID NO: 5001: siRNA targeting DPYD (chain 1 GCTAGCATTATGTGCAGTTACAATA; chain 2 GCUAGCAUUAUGUGCAGUUACAAUA; chemistry not given here; one strand in two spellings) | – | – | – | − (no growth inhibition with any siRNA)
SEQ ID NO: 5002: siRNA targeting DPYD (chain 1 GCCACTGAAGAGGGACCCATTAATA; chain 2 GCCACUGAAGAGGGACCCAUUAAUA; chemistry not given here; one strand in two spellings) | – | – | – | − (no growth inhibition with any siRNA)
SEQ ID NO: 5003: siRNA targeting DPYD (chain 1 GGCTACAAAGCTGCTTTCATTGGAA; chain 2 GGCUACAAAGCUGCUUUCAUUGGAA; chemistry not given here; one strand in two spellings) | – | – | – | − (no growth inhibition with any siRNA)
